Experimental data reported in patent publication US10981932B2, “Macrocyclic indole derivatives” (Bayer Aktiengesellschaft, priority 2016, dated 2021).
Values joined by “and” are separate entries in the source; they are usually repeats but may differ in a detail not shown here. Equal entries are not always repeated. Structures can show the parent of a compound that is named as a salt. Where two headings read alike, the source gives them in different places.

Legend:
SUDHL5 [1] = test: Anti-proliferative effect (CellTiter-Glo, 72 h), SUDHL5; type: cell-based; details: SUDHL5 cells, antiproliferation, 72 h incubation, median, read-out: Antiproli SUDHL5 [M] (median)
Summary of the method: (§1)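 After seeding, one plate is read right away by CellTiter-Glo luminescence to fix time zero. The treated plates stay at 37 °C in humidified air for 72 h and are then measured with the same reagent and 10 min incubation.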

A2780 = test: Anti-proliferative effect (CellTiter-Glo, 72 h), A2780; type: cell-based; details: A2780 cells, median, read-out: IC50 antiproliferation assay A2780 [M] (median)
Summary of the method: as §1

SUDHL5 [2] = test: Induction of cytotoxicity (CellTiter-Glo, 5 h), SUDHL5
OPM2 = test: Anti-proliferative effect (CellTiter-Glo, 72 h), OPM2; type: cell-based; details: OPM2 cells, median, read-out: IC50 antiproliferation assay OPM2 [M] (median)
Summary of the method: as §1

MCL-1 = MCL-1 (Homo sapiens, UniProt Q07820); test: Protein-protein interaction assay MCL-1/Noxa BH3 peptide (MCL-1 assay), TR-FRET; type: binding; details: MBP-MCL-1 / Noxa BH3-derived peptide, median
MCL-1, sequence (Q07820 whole entry): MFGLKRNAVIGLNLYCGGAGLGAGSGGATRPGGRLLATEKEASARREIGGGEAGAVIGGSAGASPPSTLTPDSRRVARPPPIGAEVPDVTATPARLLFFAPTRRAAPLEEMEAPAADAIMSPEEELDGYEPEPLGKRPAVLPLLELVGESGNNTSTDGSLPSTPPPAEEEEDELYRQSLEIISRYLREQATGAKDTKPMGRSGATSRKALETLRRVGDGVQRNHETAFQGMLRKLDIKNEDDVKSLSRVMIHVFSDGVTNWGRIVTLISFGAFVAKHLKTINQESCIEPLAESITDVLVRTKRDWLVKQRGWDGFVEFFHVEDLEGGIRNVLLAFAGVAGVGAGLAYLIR
Summary of the method: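 Inhibition values were normalized between DMSO controls with all reagents and controls lacking MCL-1. The binding competition used 1 nM MBP-MCL-1 in pH 7 Tris buffer containing 50 mM KF and 100 mM NaCl, with a 10 min compound preincubation at 22 °C.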

SUDHL5 [3] = test: Induction of caspase-3/7 activity (Caspase-Glo 3/7), SUDHL5; type: cell-based; details: caspase-3/7 induction, SUDHL5 cells, 3 h treatment, median
Summary of the method: (§2)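 Apoptosis induction measured as caspase-3/7 activity (Caspase-Glo 3/7) in DLBCL lines after 3 h treatment at 37 °C; EC50 derived relative to the reference compound's maximal induction, with C0 fixed at 1.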

SUDHL10 [4] = test: Anti-proliferative effect (CellTiter-Glo, 72 h), SUDHL10; type: cell-based; details: SUDHL10 cells, antiproliferation, 72 h incubation, median, read-out: Antiproli SUDHL10 [M] (median)
Summary of the method: as §1

SUDHL10 [5] = test: Induction of caspase-3/7 activity (Caspase-Glo 3/7), SUDHL10; type: cell-based; details: caspase-3/7 induction, SUDHL10 cells, 3 h treatment, median
Summary of the method: as §2

SUDHL10 [6] = test: Induction of cytotoxicity (CellTiter-Glo, 5 h), SUDHL10
[7] = Homo sapiens, SU-DHL-5, 5 h, read-out: Cytotox SUDHL5 [M] (median), SUDHL5 cells, cytotoxicity induction, CellTiter-Glo, 5 h incubation, median
[8] = Homo sapiens, SU-DHL10, 5 h, read-out: Cytotox SUDHL10 [M] (median), SUDHL10 cells, cytotoxicity induction, CellTiter-Glo, 5 h incubation, median
[9] = read-out: Cytotox SUDHL5 [M] (median), SUDHL5 cells, cytotoxicity induction, CellTiter-Glo, 5 h incubation, median
[10] = read-out: Cytotox SUDHL10 [M] (median), SUDHL10 cells, cytotoxicity induction, CellTiter-Glo, 5 h incubation, median

Row | SMILES | IC50 (SUDHL5 [1]; Homo sapiens, SU-DHL-5, 72 h) [M] | IC50 (A2780; Homo sapiens, A2780, 72 h) [M] | IC50 (MCL-1) [µM] | EC50 (SUDHL5 [3]; Homo sapiens, SU-DHL-5, 3 h) [µM] | IC50 (SUDHL10 [4]; Homo sapiens, SU-DHL10, 72 h) [M] | EC50 (SUDHL10 [5]; Homo sapiens, SU-DHL10, 3 h) [µM] | IC50 (SUDHL5 [1]) [M] | IC50 (A2780) [M] | EC50 (SUDHL5 [3]) [µM] | IC50 (SUDHL10 [4]) [M] | EC50 (SUDHL10 [5]) | IC50 (SUDHL5 [2]; [7]) [M] | IC50 (OPM2; Homo sapiens, OPM-2, 72 h) [M] | IC50 (SUDHL10 [6]; [8]) [M] | IC50 (SUDHL5 [2]; [9]) [M] | IC50 (OPM2) [M] | IC50 (SUDHL10 [6]; [10])
1 | Cc1nn(C)c2c1-c1cccc3c(CCCOc4cccc5ccccc45)c(C(=O)O)n(c13)CCCN(c1ccc(N3CCOCC3)cc1)C2 (single isomer, unassigned; enantiomer 2) [Example 1-100, 9,11-Dimethyl-7-[4-(morpholin-4-yl)phenyl]-1-[3-(1-naphthyloxy)propyl]-4,5,6,7,8,9-hexahydropyrazolo[3′,4′:7,8][1,5]diazecino[9,10,1-hi]indole-2-carboxylic Acid (Enantiomer 2)] | – | – | 0.0359 | – | – | – | 9.42e-06 | 1.38e-05 | 28.4 | 6.21e-06 | > 33 µM and 30.6 µM | – | – | – | > 3.3e-05 | 1.94e-05 | > 3.3e-05 M and 3.29e-05 M
2 | CN1CCCn2c(C(=O)O)c(CCCOc3cccc4ccccc34)c3cccc(c32)-c2c(COc3ccc(N4CCN(S(C)(=O)=O)CC4)cc3)nn(C)c2C1 (single isomer, unassigned) [Example 1-47, (−)-7,9-dimethyl-11-({4-[4-(methylsulfonyl)piperazin-1-yl]phenoxy}methyl)-1-[3-(naphthalen-1-yloxy)propyl]-4,5,6,7,8,9-hexahydropyrazolo[3′,4′:7,8][1,5]diazecino[9,10,1-hi]indole-2-carboxylic Acid] | – | – | 0.0193 | – | – | – | 3.91e-06 | 6.4e-06 | 9.12 | 3.99e-06 | 9.54 µM | – | – | – | 1.08e-05 | 8.35e-06 | 1.32e-05 M
3 | Cc1nn(C)c2c1-c1cccc3c(CCCOc4cccc5ccccc45)c(C(=O)O)n(c13)CCCCOC2 (racemic) [Example 1-33, (rac)-1,3-dimethyl-7-[3-(naphthalen-1-yloxy)propyl]-1,10,11,12,13,15-hexahydropyrazolo[4′,3′:9,10][1,6]oxazacycloundecino[8,7,6-hi]indole-8-carboxylic Acid] | 9.78e-06 | > 3.3e-05 | 0.009 | 5.78 | 1.83e-05 | 13.7 | – | – | – | – | – | 7.47e-06 | 2.23e-05 | 2.19e-05 | – | – | –
4 | CN1CCN(c2ccc(OCc3nn(C)c4c3-c3cccc5c(CCCOc6cccc7ccccc67)c(C(=O)O)n(c35)CCCCOC4)cc2)CC1 (racemic) [Example 1-7, (rac)-1-methyl-3-{[4-(4-methylpiperazin-1-yl)phenoxy]methyl}-7-[3-(naphthalen-1-yloxy)propyl]-1,10,11,12,13,15-hexahydropyrazolo[4′,3′:9,10][1,6]oxazacycloundecino[8,7,6-hi]indole-8-carboxylic Acid] | 1.63e-06 | > 3.3e-05 | 0.0158 | > 33 | > 3.3e-05 | > 33 | – | – | – | – | – | > 3.3e-05 | > 3.3e-05 | 8.17e-06 | – | – | –
5 | Cn1nc(COc2ccc(N3CCN(C(=O)C4CC4)CC3)cc2)c2c1COCCCCn1c(C(=O)O)c(CCCOc3cccc4ccccc34)c3cccc-2c31 (single isomer, unassigned; enantiomer 2) [Example 1-23, 3-({4-[4-(cyclopropylcarbonyl)piperazin-1-yl)phenoxy]methyl}-1-methyl-7-[3-(naphthalen-1-yloxy)propyl]-1,10,11,12,13,15-hexahydropyrazolo[4′,3′:9,10][1,6]oxazacycloundecino[8,7,6-hi]indole-8-carboxylic acid (enantiomer 2)] | – | – | 0.0323 | – | – | – | 1.15e-05 | 1.43e-05 | 21.3 | 5.59e-06 | 23 µM | – | – | – | 2.45e-05 | 1.7e-05 | > 3.3e-05 M
6 | Cn1nc(COc2ccc(N3CCN(CCC(C)(C)O)CC3)cc2)c2c1COCCCCn1c(C(=O)O)c(CCCOc3cccc4ccccc34)c3cccc-2c31 (racemic) [Example 1-121, (rac)-3-({4-[4-(3-hydroxy-3-methylbutyl)piperazin-1-yl]phenoxy}methyl)-1-methyl-7-[3-(naphthalen-1-yloxy)propyl]-1,10,11,12,13,15-hexahydropyrazolo[4′,3′:9,10][1,6]oxazacycloundecino[8,7,6-hi]indole-8-carboxylic Acid Ammonium Salt] | 5.79e-06 | 9.61e-06 | 0.00436 | 2.66 | 5.07e-06 | 8.04 | – | – | – | – | – | 3.07e-06 | 8.33e-06 | 6.21e-06 | – | – | –

Now from value to compound, other results behind:

Row | IC50 (SUDHL5 [1]; Homo sapiens, SU-DHL-5, 72 h) [M] | IC50 (A2780; Homo sapiens, A2780, 72 h) [M] | IC50 (MCL-1) [µM] | EC50 (SUDHL5 [3]; Homo sapiens, SU-DHL-5, 3 h) [µM] | IC50 (SUDHL10 [4]; Homo sapiens, SU-DHL10, 72 h) [M] | EC50 (SUDHL10 [5]; Homo sapiens, SU-DHL10, 3 h) [µM] | IC50 (SUDHL5 [1]) [M] | IC50 (A2780) [M] | EC50 (SUDHL5 [3]) [µM] | IC50 (SUDHL10 [4]) [M] | EC50 (SUDHL10 [5]) | SMILES | IC50 (SUDHL5 [2]; [7]) [M] | IC50 (OPM2; Homo sapiens, OPM-2, 72 h) [M] | IC50 (SUDHL10 [6]; [8]) [M] | IC50 (SUDHL5 [2]; [9]) [M] | IC50 (OPM2) [M] | IC50 (SUDHL10 [6]; [10])
7 | 4.17e-06 | 2.26e-05 | 0.0131 | 5.9 | 4.49e-06 | 18.1 | – | – | – | – | – | Cc1c2c(nn1C)COC/C=C\Cn1c(C(=O)O)c(CCCOc3cccc4ccccc34)c3cccc-2c31 (racemic) [Example 062, (rac)-(11Z)-2,3-dimethyl-7-[3-(naphthalen-1-yloxy)propyl]-2,10,13,15-tetrahydropyrazolo[4′,3′:9,10][1,6]oxazacycloundecino[8,7,6-hi]indole-8-carboxylic Acid] | 6.67e-06 | 1.67e-05 | 2.43e-05 | – | – | –
8 | 3.62e-06 | 2.25e-05 | 0.00632 | 9.89 | 8.05e-06 | 17.8 | – | – | – | – | – | Cc1cc(OCCCc2c(C(=O)O)n3c4c(cccc24)-c2c(C)nn(C)c2COCCCC3)cc(C)c1Cl (racemic) [Example 009, (rac)-7-[3-(4-chloro-3,5-dimethylphenoxy)propyl]-1,3-dimethyl-1,10,11,12,13,15-hexahydropyrazolo[4′,3′:9,10][1,6]oxazacycloundecino[8,7,6-hi]indole-8-carboxylic Acid] | 1.11e-05 | 2.1e-05 | 2.04e-05 | – | – | –
9 | – | – | 0.00314 | – | – | – | 2.28e-06 | 1.14e-05 | 4.11 | 1.01e-05 | 7.36 µM | Cn1nc(COc2ccc(N3CCOCC3)cc2)c2c1COCCCCn1c(C(=O)O)c(CCCOc3cccc4ccccc34)c3cccc-2c31 (single isomer, unassigned; enantiomer 2) [Example 123, 1-methyl-3-{[4-(morpholin-4-yl)phenoxy]methyl}-7-[3-(naphthalen-1-yloxy)propyl]-1,10,11,12,13,15-hexahydropyrazolo[4′,3′:9,10][1,6]oxazacycloundecino[8,7,6-hi]indole-8-carboxylic Acid (Enantiomer 2)] | – | – | – | 3.13e-06 | 4.32e-06 | 2.1e-05 M
10 | – | 7.4e-06 | 0.0577 | – | 1.17e-05 | – | 1.03e-05 | – | 27.5 | – | 21.8 µM | Cn1nc(COc2ccc(N3CCOCC3)cc2)c2c1COCCCCn1c(C(=O)O)c(CCCOc3cccc4ccccc34)c3cccc-2c31 (single isomer, unassigned; enantiomer 1) [Example 122, 1-methyl-3-{[4-(morpholin-4-yl)phenoxy]methyl}-7-[3-(naphthalen-1-yloxy)propyl]-1,10,11,12,13,15-hexahydropyrazolo[4′,3′:9,10][1,6]oxazacycloundecino[8,7,6-hi]indole-8-carboxylic Acid (Enantiomer 1)] | – | 2.79e-06 | > 3.3e-05 | 2.92e-05 | – | –
